In ChEMBL document CHEMBL3045739, “Synthesis and Fungicidal Activity of 6-Alkyl Six-membered Cyclic Thiophosphates” (1997):

What was measured:
Format in all cases: functional
Athelia rolfsii [1] = test: Fungicidal activity against Athelia rolfsii assessed as fungal growth inhibition at 100 ppm by agar dilution method; settings: Agroathelia rolfsii; read-out: GI
Pythium [2] = test: Fungicidal activity against Pythium sp. assessed as fungal growth inhibition at 100 ppm by agar dilution method; settings: read-out: GI
Pythium [3] = test: Fungicidal activity against Pythium sp. assessed as fungal growth inhibition at 10 ppm by agar dilution method; settings: read-out: GI
Athelia rolfsii [4] = test: Fungicidal activity against Athelia rolfsii assessed as fungal growth inhibition at 10 ppm by agar dilution method; settings: Agroathelia rolfsii; read-out: GI

| SMILES | inhibition of growth at 100 ppm (Athelia rolfsii [1]) | inhibition of growth at 100 ppm (Pythium [2]) | inhibition of growth at 10 ppm (Pythium [3]) | inhibition of growth at 10 ppm (Athelia rolfsii [4]) |
| --- | --- | --- | --- | --- |
| CCOP1(=S)OCc2cc(C(C)CC)ccc2O1 (stereo unspecified) | 67% | 56% | – | – |
| CCCCc1ccc2c(c1)COP(=S)(OCC)O2 (stereo unspecified) | 76% | 61% | – | – |
| CCCCc1ccc2c(c1)COP(=S)(Oc1ccc(C)cc1C(C)C)O2 (stereo unspecified) | 41% | 39% | – | – |
| CCCCc1ccc2c(c1)COP(=S)(Oc1cc(C)ccc1C(C)C)O2 (stereo unspecified) | 58% | 83% | 23% | – |
| CCCc1ccc2c(c1)COP(=S)(OCCc1ccccc1)O2 (stereo unspecified) | 48% | 48% | – | – |
| CCCc1ccc2c(c1)COP(=S)(Oc1cc(C)ccc1C(C)C)O2 (stereo unspecified) | 37% | 53% | – | – |
| CCCc1ccc2c(c1)COP(=S)(Oc1ccc(C)cc1C(C)C)O2 (stereo unspecified) | 27% | 3% | – | – |
| CCCc1ccc2c(c1)COP(=S)(OCC)O2 (stereo unspecified) | 84% | 56% | – | 63% |
| CCOP1(=S)OCc2cc(C(C)C)ccc2O1 (stereo unspecified) | 83% | 66% | – | 45% |
| CCOP1(=S)OCc2cc(CC)ccc2O1 (stereo unspecified) | 91% | 82% | 42% | 66% |
| CC(C)OP(=O)(OC(C)C)SCc1ccccc1 [IPROBENFOS] | 100% | 89% | 42% | 69% |
| COP1(=S)OCc2ccccc2O1 (stereo unspecified) [SALITHION] | 61% | 75% | – | – |
